How the values were obtained:
[1] = test system: barnyard grass; assay: Test Example 3: herbicidal effect by foliage application, Wagner pot (Table 18, symbol H); type: in vivo, barnyard grass (Echinochloa crus-galli); settings: 320 g/ha
Outline: (§1)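 Plants were sown in alluvial soil held under 0.1–0.5 cm standing water and grown 14 days in a greenhouse at 25–30 °C. An emulsifiable formulation, water-diluted to the set dose, was then sprayed onto the foliage, and effects were scored three weeks later using previously defined criteria.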

[2] = test system: Chinese sprangletop; assay: Test Example 3: herbicidal effect by foliage application, Wagner pot (Table 18, symbol D); type: in vivo, chinese sprangletop (Leptochloa chinensis); settings: 320 g/ha
Outline: as §1

[3] = test system: rice flat sedge; assay: Test Example 3: herbicidal effect by foliage application, Wagner pot (Table 18, symbol E); type: in vivo, rice flat sedge (Cyperus iria); settings: 320 g/ha
Outline: as §1

[4] = test system: southern crabgrass; assay: Test Example 5: herbicidal effect by foliage application, plastic box (Table 20, symbol F); type: in vivo, southern crabgrass (Digitaria ciliaris); settings: foliage application; for F: southern crabgrass, herbicidal effect: AAH 320 g/ha; for herbicidal effect on F: southern crabgrass (criteria 0-5): evaluated three weeks after application
Outline: (§2)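 Foliar spray test: emulsion formulation diluted in water to a set application rate, sprayed onto 14-day-old plants raised in diluvial soil at 25° C to 30° C under glass. Both herbicidal effect and crop effect rated visually three weeks later.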

[5] = test system: green foxtail; assay: Test Example 5: herbicidal effect by foliage application, plastic box (Table 20, symbol G); type: in vivo, green foxtail (Setaria viridis); settings: foliage application; for G: green foxtail, herbicidal effect: AAH 320 g/ha; for herbicidal effect on G: green foxtail (criteria 0-5): evaluated three weeks after application
Outline: as §2

[6] = test system: barnyard grass; assay: Test Example 5: herbicidal effect by foliage application, plastic box (Table 20, symbol H); type: in vivo, barnyard grass (Echinochloa crus-galli); settings: foliage application; for H: barnyard grass, herbicidal effect: AAH 320 g/ha; for herbicidal effect on H: barnyard grass (criteria 0-5): evaluated three weeks after application
Outline: as §2

[7] = test system: wild oat; assay: Test Example 5: herbicidal effect by foliage application, plastic box (Table 20, symbol I); type: in vivo, wild oat (Avena fatua); settings: foliage application; for I: wild oat, herbicidal effect: AAH 320 g/ha; for herbicidal effect on I: wild oat (criteria 0-5): evaluated three weeks after application
Outline: as §2

[8] = test system: blackgrass; assay: Test Example 5: herbicidal effect by foliage application, plastic box (Table 20, symbol J); type: in vivo, blackgrass (Alopecurus myosuroides); settings: foliage application; for J: blackgrass, herbicidal effect: AAH 320 g/ha; for herbicidal effect on J: blackgrass (criteria 0-5): evaluated three weeks after application
Outline: as §2

[9] = test system: Italian ryegrass; assay: Test Example 5: herbicidal effect by foliage application, plastic box (Table 20, symbol K); type: in vivo, Italian ryegrass (Lolium multiflorum); settings: foliage application; for K: Italian ryegrass, herbicidal effect: AAH 320 g/ha; for herbicidal effect on K: Italian ryegrass (criteria 0-5): evaluated three weeks after application
Outline: as §2

[10] = test system: windgrass; assay: Test Example 5: herbicidal effect by foliage application, plastic box (Table 20, symbol L); type: in vivo, windgrass (Apera spica-venti); settings: foliage application; for L: windgrass, herbicidal effect: AAH 320 g/ha; for herbicidal effect on L: windgrass (criteria 0-5): evaluated three weeks after application
Outline: as §2

[11] = test system: velvetleaf; assay: Test Example 5: herbicidal effect by foliage application, plastic box (Table 20, symbol M); type: in vivo, velvetleaf (Abutilon theophrasti); settings: foliage application; for M: velvetleaf, herbicidal effect: AAH 320 g/ha; for herbicidal effect on M: velvetleaf (criteria 0-5): evaluated three weeks after application
Outline: as §2

[12] = test system: redroot pigweed; assay: Test Example 5: herbicidal effect by foliage application, plastic box (Table 20, symbol N); type: in vivo, redroot pigweed (Amaranthus retroflexus); settings: foliage application; for N: redroot pigweed, herbicidal effect: AAH 320 g/ha; for herbicidal effect on N: redroot pigweed (criteria 0-5): evaluated three weeks after application
Outline: as §2

[13] = test system: lambsquarters; assay: Test Example 5: herbicidal effect by foliage application, plastic box (Table 20, symbol O); type: in vivo, lambsquarters (Chenopodium album); settings: foliage application; for O: lambsquarters, herbicidal effect: AAH 320 g/ha; for herbicidal effect on O: lambsquarters (criteria 0-5): evaluated three weeks after application
Outline: as §2

[14] = test system: chickweed; assay: Test Example 5: herbicidal effect by foliage application, plastic box (Table 20, symbol P); type: in vivo, common chickweed (Stellaria media); settings: foliage application; for P: chickweed, herbicidal effect: AAH 320 g/ha; for herbicidal effect on P: chickweed (criteria 0-5): evaluated three weeks after application
Outline: as §2

[15] = test system: persian speedwell; assay: Test Example 5: herbicidal effect by foliage application, plastic box (Table 20, symbol R); type: in vivo, Persian speedwell (Veronica persica); settings: foliage application; for R: persian speedwell, herbicidal effect: AAH 320 g/ha; for herbicidal effect on R: persian speedwell (criteria 0-5): evaluated three weeks after application
Outline: as §2

[16] = 320 g/ha, three weeks after application

Row | SMILES | herbicidal effect on H (barnyard grass), rating 0-5 [1] | herbicidal effect on D (Chinese sprangletop), rating 0-5 [2] | herbicidal effect on E (rice flat sedge), rating 0-5 [3] | F: southern crabgrass, herbicidal effect ([4]; three weeks after application) | G: green foxtail, herbicidal effect ([5]; three weeks after application) | H: barnyard grass, herbicidal effect ([6]; three weeks after application) | I: wild oat, herbicidal effect ([7]; three weeks after application) | J: blackgrass, herbicidal effect ([8]; three weeks after application) | K: Italian ryegrass, herbicidal effect ([9]; three weeks after application) | L: windgrass, herbicidal effect ([10]; three weeks after application) | M: velvetleaf, herbicidal effect ([11]; three weeks after application) | N: redroot pigweed, herbicidal effect ([12]; three weeks after application) | O: lambsquarters, herbicidal effect ([13]; three weeks after application) | P: chickweed, herbicidal effect ([14]; three weeks after application) | R: persian speedwell, herbicidal effect ([15]; three weeks after application) | herbicidal effect on F: southern crabgrass (criteria 0-5) ([4]; 320 g/ha) | herbicidal effect on G: green foxtail (criteria 0-5) ([5]; 320 g/ha) | herbicidal effect on H: barnyard grass (criteria 0-5) ([6]; 320 g/ha) | herbicidal effect on I: wild oat (criteria 0-5) ([7]; 320 g/ha) | herbicidal effect on J: blackgrass (criteria 0-5) ([8]; 320 g/ha) | also measured
1 | CCCC(=O)Oc1c(C)nn(C)c(=O)c1-c1c(-c2ccccc2SC)sc2ccccc12 [1-035] | 3 (Herbicidal rate of 40% or more and less than 70%) | 0 (Herbicidal rate of 5% or less (almost no effect)) | 4 (Herbicidal rate of 70% or more and less than 90%) | – | – | – | – | – | – | – | – | – | – | – | – | – | – | – | – | – | herbicidal effect grade, F: southern crabgrass [4, 16]: 0 (Herbicidal rate of 5% or less (almost no effect)); herbicidal effect grade, G: green foxtail [5, 16]: 0 (Herbicidal rate of 5% or less (almost no effect)); herbicidal effect grade, H: barnyard grass [6, 16]: 0 (Herbicidal rate of 5% or less (almost no effect)); herbicidal effect grade, I: wild oat [7, 16]: 3 (Herbicidal rate of 40% or more and less than 70%); herbicidal effect grade, J: blackgrass [8, 16]: 0 (Herbicidal rate of 5% or less (almost no effect)); herbicidal effect grade, K: Italian ryegrass [9, 16]: 0 (Herbicidal rate of 5% or less (almost no effect)); herbicidal effect grade, L: windgrass [10, 16]: 0 (Herbicidal rate of 5% or less (almost no effect)); herbicidal effect grade, M: velvetleaf [11, 16]: 0 (Herbicidal rate of 5% or less (almost no effect)); herbicidal effect grade, N: redroot pigweed [12, 16]: 0 (Herbicidal rate of 5% or less (almost no effect)); herbicidal effect grade, O: lambsquarters [13, 16]: 0 (Herbicidal rate of 5% or less (almost no effect)); herbicidal effect grade, P: chickweed [14, 16]: 1 (Herbicidal rate of 5% or more and less than 20%); herbicidal effect grade, R: persian speedwell [15, 16]: 0 (Herbicidal rate of 5% or less (almost no effect))
2 | COc1nn(C)c(=O)c(-c2c(-c3cccc(OC(F)(F)F)c3)sc3ccccc23)c1O [1-160] | 0 (Herbicidal rate of 5% or less (almost no effect)) | 1 (Herbicidal rate of 5% or more and less than 20%) | 4 (Herbicidal rate of 70% or more and less than 90%) | 0 (Herbicidal rate of 5% or less (almost no effect)) | 1 (Herbicidal rate of 5% or more and less than 20%) | 1 (Herbicidal rate of 5% or more and less than 20%) | 0 (Herbicidal rate of 5% or less (almost no effect)) | 0 (Herbicidal rate of 5% or less (almost no effect)) | 1 (Herbicidal rate of 5% or more and less than 20%) | 0 (Herbicidal rate of 5% or less (almost no effect)) | 1 (Herbicidal rate of 5% or more and less than 20%) | 5 (Herbicidal rate of 90% or more (almost completely withered)) | 1 (Herbicidal rate of 5% or more and less than 20%) | 4 (Herbicidal rate of 70% or more and less than 90%) | 0 (Herbicidal rate of 5% or less (almost no effect)) | – | – | – | – | – | –
3 | CCCC(=O)Oc1c(OC)nn(C)c(=O)c1-c1c(-c2cccc(OC(F)(F)F)c2)sc2ccccc12 [1-161] | 1 (Herbicidal rate of 5% or more and less than 20%) | 0 (Herbicidal rate of 5% or less (almost no effect)) | 3 (Herbicidal rate of 40% or more and less than 70%) | 0 (Herbicidal rate of 5% or less (almost no effect)) | 0 (Herbicidal rate of 5% or less (almost no effect)) | 0 (Herbicidal rate of 5% or less (almost no effect)) | 0 (Herbicidal rate of 5% or less (almost no effect)) | 0 (Herbicidal rate of 5% or less (almost no effect)) | 0 (Herbicidal rate of 5% or less (almost no effect)) | 0 (Herbicidal rate of 5% or less (almost no effect)) | 1 (Herbicidal rate of 5% or more and less than 20%) | 3 (Herbicidal rate of 40% or more and less than 70%) | 0 (Herbicidal rate of 5% or less (almost no effect)) | 0 (Herbicidal rate of 5% or less (almost no effect)) | 0 (Herbicidal rate of 5% or less (almost no effect)) | – | – | – | – | – | –
4 | CCCC(=O)Oc1c(C)nn(C)c(=O)c1-c1c(-c2ccccc2SC)sc2ccc(C)cc12 [2-143] | – | – | – | – | – | – | – | – | – | – | – | – | – | – | – | 0 (Herbicidal rate of 5% or less (almost no effect)) | 0 (Herbicidal rate of 5% or less (almost no effect)) | 0 (Herbicidal rate of 5% or less (almost no effect)) | 0 (Herbicidal rate of 5% or less (almost no effect)) | 0 (Herbicidal rate of 5% or less (almost no effect)) | herbicidal effect on K: Italian ryegrass (criteria 0-5) ([9]; 320 g/ha): 0 (Herbicidal rate of 5% or less (almost no effect)); herbicidal effect on L: windgrass (criteria 0-5) ([10]; 320 g/ha): 0 (Herbicidal rate of 5% or less (almost no effect)); herbicidal effect on M: velvetleaf (criteria 0-5) ([11]; 320 g/ha): 0 (Herbicidal rate of 5% or less (almost no effect)); herbicidal effect on N: redroot pigweed (criteria 0-5) ([12]; 320 g/ha): 0 (Herbicidal rate of 5% or less (almost no effect)); herbicidal effect on O: lambsquarters (criteria 0-5) ([13]; 320 g/ha): 0 (Herbicidal rate of 5% or less (almost no effect)); herbicidal effect on P: chickweed (criteria 0-5) ([14]; 320 g/ha): 3 (Herbicidal rate of 40% or more and less than 70%); herbicidal effect on R: persian speedwell (criteria 0-5) ([15]; 320 g/ha): 0 (Herbicidal rate of 5% or less (almost no effect))
5 | CCCC(=O)Oc1c(C)nn(C)c(=O)c1-c1c(-c2ccc(F)cc2OC)sc2ccc(-c3ccc(OC(C)C)cc3)cc12 [2-169] | – | – | – | – | – | – | – | – | – | – | – | – | – | – | – | 0 (Herbicidal rate of 5% or less (almost no effect)) | 0 (Herbicidal rate of 5% or less (almost no effect)) | 0 (Herbicidal rate of 5% or less (almost no effect)) | 0 (Herbicidal rate of 5% or less (almost no effect)) | 0 (Herbicidal rate of 5% or less (almost no effect)) | herbicidal effect on K: Italian ryegrass (criteria 0-5) ([9]; 320 g/ha): 0 (Herbicidal rate of 5% or less (almost no effect)); herbicidal effect on L: windgrass (criteria 0-5) ([10]; 320 g/ha): 0 (Herbicidal rate of 5% or less (almost no effect)); herbicidal effect on M: velvetleaf (criteria 0-5) ([11]; 320 g/ha): 0 (Herbicidal rate of 5% or less (almost no effect)); herbicidal effect on N: redroot pigweed (criteria 0-5) ([12]; 320 g/ha): 2 (Herbicidal rate of 20% or more and less than 40%); herbicidal effect on O: lambsquarters (criteria 0-5) ([13]; 320 g/ha): 3 (Herbicidal rate of 40% or more and less than 70%); herbicidal effect on P: chickweed (criteria 0-5) ([14]; 320 g/ha): 0 (Herbicidal rate of 5% or less (almost no effect)); herbicidal effect on R: persian speedwell (criteria 0-5) ([15]; 320 g/ha): 0 (Herbicidal rate of 5% or less (almost no effect))

From patent US20230085307A1, “PYRIDAZINONE COMPOUND AND HERBICIDE” (NISSAN CHEMICAL CORPORATION, priority 2019, published 2023)
